The source of these data is US11746087B1, “C4-carboxylic acid-substituted tryptamine derivatives and methods of using” (priority 2022, dated 2023).

Data set [1] is described as follows: Dosing solution concentration by LC-MS (measured vs nominal). The format is physicochemical. Conditions: C(IV) nominal 0.1 mg/mL. On the procedure:
Briefly, the procedure was as follows. […] 19, 2022.
Pharmacokinetic (PK) evaluations were performed in the same manner as described in Example 1, except compound C(IV) was used in place of compound C(V). […] Thus, only psilocin PK analysis was performed. […] Table 46 summarizes these “measured” concentrations along with corresponding “nominal” concentrations for each dosing solution. Results for psilocin PK following C(IV) administration are found in Tables 47A-47B (0.293 mg/kg IV dose), Tables 48A-48B (0.275 mg/kg oral dose), Tables 49A-49B (0.789 mg/kg oral dose), Tables 50A-50B (2.52 mg/kg oral dose), Table 51 (comparative summary for IV data), Table 52 (comparative summary for oral data), Table 53A (psilocin exposure) and FIGS. 10H (i) and 10H (ii).

For data set [2], the target named is DRD2S (Homo sapiens, UniProt P14416). Nature of the data set: EFC-based cAMP secondary messenger assay, agonist mode. The format is cell-based.
The target of data set [3] is NMDAR (Homo sapiens, UniProt Q05586+Q13224). The experiment in a line: Ion channel assay (FLIPR membrane potential), blocker. It counts as cell-based.
Sequence of NMDAR (Q13224 27-1484, other chains not shown): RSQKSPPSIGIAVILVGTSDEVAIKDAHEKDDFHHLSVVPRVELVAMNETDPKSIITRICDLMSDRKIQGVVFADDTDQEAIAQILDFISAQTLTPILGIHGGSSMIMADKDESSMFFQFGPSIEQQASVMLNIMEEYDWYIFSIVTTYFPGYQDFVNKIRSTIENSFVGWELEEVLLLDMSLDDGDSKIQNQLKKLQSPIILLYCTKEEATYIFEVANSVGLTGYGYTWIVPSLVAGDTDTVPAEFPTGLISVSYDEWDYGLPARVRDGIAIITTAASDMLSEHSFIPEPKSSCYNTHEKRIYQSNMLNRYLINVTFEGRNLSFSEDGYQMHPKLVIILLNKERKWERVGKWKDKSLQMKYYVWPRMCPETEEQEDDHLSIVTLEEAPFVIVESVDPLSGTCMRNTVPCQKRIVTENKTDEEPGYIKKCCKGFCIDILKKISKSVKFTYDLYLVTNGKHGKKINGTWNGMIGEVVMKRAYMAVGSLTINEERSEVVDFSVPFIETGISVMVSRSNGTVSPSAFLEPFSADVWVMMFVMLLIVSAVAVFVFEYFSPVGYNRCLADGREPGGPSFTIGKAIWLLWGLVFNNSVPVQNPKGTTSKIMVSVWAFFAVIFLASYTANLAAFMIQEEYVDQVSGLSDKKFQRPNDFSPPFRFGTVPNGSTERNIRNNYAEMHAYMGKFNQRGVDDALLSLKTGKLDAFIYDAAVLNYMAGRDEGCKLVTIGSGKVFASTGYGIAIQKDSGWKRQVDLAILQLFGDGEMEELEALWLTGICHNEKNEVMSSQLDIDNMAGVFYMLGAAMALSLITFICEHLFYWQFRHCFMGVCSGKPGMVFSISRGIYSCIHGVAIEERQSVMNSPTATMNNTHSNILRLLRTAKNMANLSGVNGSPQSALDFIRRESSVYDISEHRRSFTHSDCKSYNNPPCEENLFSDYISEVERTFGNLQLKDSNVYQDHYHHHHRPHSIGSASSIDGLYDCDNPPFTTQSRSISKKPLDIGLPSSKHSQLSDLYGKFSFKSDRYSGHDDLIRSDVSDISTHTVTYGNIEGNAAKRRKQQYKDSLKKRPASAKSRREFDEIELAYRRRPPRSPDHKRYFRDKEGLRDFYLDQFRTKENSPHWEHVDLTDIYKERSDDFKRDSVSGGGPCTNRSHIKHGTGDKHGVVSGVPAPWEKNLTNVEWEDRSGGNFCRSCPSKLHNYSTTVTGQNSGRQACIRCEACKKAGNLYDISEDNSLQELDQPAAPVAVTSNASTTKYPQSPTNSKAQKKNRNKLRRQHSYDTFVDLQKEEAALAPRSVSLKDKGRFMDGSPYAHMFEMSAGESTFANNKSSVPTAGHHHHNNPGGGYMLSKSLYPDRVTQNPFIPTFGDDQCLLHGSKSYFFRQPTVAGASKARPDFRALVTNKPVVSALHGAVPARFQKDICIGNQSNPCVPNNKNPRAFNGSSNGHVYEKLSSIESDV

Sequence of DRD2S (P14416 1-414 isoform P14416-2): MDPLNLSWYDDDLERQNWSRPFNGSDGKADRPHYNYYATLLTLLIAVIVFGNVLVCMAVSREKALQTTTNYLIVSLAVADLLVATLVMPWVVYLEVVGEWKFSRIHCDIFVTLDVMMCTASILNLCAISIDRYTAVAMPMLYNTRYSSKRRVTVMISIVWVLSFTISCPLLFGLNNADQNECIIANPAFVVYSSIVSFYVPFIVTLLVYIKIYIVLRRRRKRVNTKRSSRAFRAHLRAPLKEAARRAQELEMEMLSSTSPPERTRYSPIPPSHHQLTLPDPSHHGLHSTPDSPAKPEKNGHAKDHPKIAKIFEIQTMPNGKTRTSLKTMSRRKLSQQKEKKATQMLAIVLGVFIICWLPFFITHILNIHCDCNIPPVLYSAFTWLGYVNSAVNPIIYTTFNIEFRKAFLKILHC

Consider `CN(C)CCc1c[nH]c2cccc(OC(=O)CC3CC3)c12` [C(IV)], for which the “Psilocin, measured, in C(IV) residual dosing solution” value in data set [1] is 0.00174 mg/mL. Moreover, the EC50 in data set [2] is 1.4 µM. Moreover, the concentration for half-maximal inhibition (IC50) in data set [3] is over 100 µM.
`COc1ccc(C(=O)Oc2cccc3[nH]cc(CCN(C)C)c23)cc1` [C(V)] yielded a concentration giving a half-maximal response (EC50) in data set [2] of over 100 µM. Also, the IC50 in data set [3] was over 100 µM.
In data set [2], `CN(C)CCc1c[nH]c2cccc(OC(=O)c3c(F)c(F)c(F)c(F)c3F)c12` [C(VI)] displayed an EC50 of 1.09 µM. Also, the IC50 in data set [3] is over 100 µM.
Compound `CN(C)CCc1c[nH]c2cccc(OC(=O)c3cccc4c3OCCO4)c12` [C(XX)] returned an EC50 in data set [2] of 1.72 µM. The IC50 in data set [3] was over 100 µM.
The compound `CN(C)CCc1c[nH]c2cccc(OC(=O)c3ccc(Br)cc3)c12` [C(I)] came in with an EC50 in data set [2] of 83.4 µM. In data set [3], this compound registered an IC50 of over 100 µM.
